Where a name gives a salt, the structure may show the parent alone.
Assays:
Settings in all cases: exposure time: 15 min to 3 h acute
Dugesia japonica [1] = assay: noxious heat displacement strength vs vehicle (% change vs vehicle); higher = higher incidence or increase relative to vehicle control
Procedure: (§1)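 Adult asexual Dugesia japonica planarians (1 per well, 48-well plate, n=24 over technical triplicates) were exposed acutely (15 min to 3 h) to each compound (0.5% DMSO or water vehicle) and screened on a robotic platform for crawl-out, stickiness, body shape, phototaxis, noxious-heat scrunching and locomotion endpoints. Binary endpoints are incidence rate x100 normalised to in-plate vehicle controls. Continuous endpoints are the median response normalised to the plate vehicle median, as % change or difference. Negative incidences after vehicle subtraction were set to 0.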

Dugesia japonica [2] = assay: speed first 30 s blue light vs vehicle (% change vs vehicle); higher = higher incidence or increase relative to vehicle control
Procedure: as §1

Dugesia japonica [3] = assay: hyperkinesis incidence (% planarians (vehicle-normalised)); higher = higher incidence or increase relative to vehicle control
Procedure: as §1

Dugesia japonica [4] = assay: pharynx extrusion incidence (% planarians (vehicle-normalised)); higher = higher incidence or increase relative to vehicle control
Procedure: as §1

Dugesia japonica [5] = assay: any abnormal body shape incidence (% planarians (vehicle-normalised)); higher = higher incidence or increase relative to vehicle control
Procedure: as §1

Dugesia japonica [6] = assay: resting fraction in dark vs vehicle (difference in fraction x100 vs vehicle); higher = higher incidence or increase relative to vehicle control
Procedure: as §1

Dugesia japonica [7] = assay: total locomotor bursts minus vehicle (bursts difference vs vehicle); higher = higher incidence or increase relative to vehicle control
Procedure: as §1

Dugesia japonica [8] = assay: resting fraction in blue light vs vehicle (difference in fraction x100 vs vehicle); higher = higher incidence or increase relative to vehicle control
Procedure: as §1

Dugesia japonica [9] = assay: speed second 30 s blue light vs vehicle (% change vs vehicle); higher = higher incidence or increase relative to vehicle control
Procedure: as §1

Dugesia japonica [10] = assay: loss of heat-induced scrunching incidence (% planarians (vehicle-normalised)); higher = higher incidence or increase relative to vehicle control
Procedure: as §1

Dugesia japonica [11] = assay: anxiety (time in outer well region) vs vehicle (% change vs vehicle); higher = higher incidence or increase relative to vehicle control
Procedure: as §1

Dugesia japonica [12] = assay: stickiness incidence (% planarians (vehicle-normalised)); higher = higher incidence or increase relative to vehicle control
Procedure: as §1

Dugesia japonica [13] = assay: speed in dark vs vehicle (% change vs vehicle); higher = higher incidence or increase relative to vehicle control
Procedure: as §1

Dugesia japonica [14] = assay: loss of phototaxis incidence (% planarians (vehicle-normalised)); higher = higher incidence or increase relative to vehicle control
Procedure: as §1

Dugesia japonica [15] = assay: C-shape incidence (% planarians (vehicle-normalised)); higher = higher incidence or increase relative to vehicle control
Procedure: as §1

Dugesia japonica [16] = assay: corkscrew incidence (% planarians (vehicle-normalised)); higher = higher incidence or increase relative to vehicle control
Procedure: as §1

Dugesia japonica [17] = assay: crawl-out incidence (% planarians); higher = higher incidence or increase relative to vehicle control
Procedure: as §1, with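 “x100.” for “x100 normalised to in-plate vehicle controls.”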

Dugesia japonica [18] = assay: contracted body shape incidence (% planarians (vehicle-normalised)); higher = higher incidence or increase relative to vehicle control
Procedure: as §1

Row | Structure (SMILES) | noxious heat displacement strength (Dugesia japonica [1]) | speed first 30 s blue light (Dugesia japonica [2]) | hyperkinesis incidence (Dugesia japonica [3]) | pharynx extrusion incidence (Dugesia japonica [4]) | any abnormal body shape incidence (Dugesia japonica [5]) | resting fraction in dark (Dugesia japonica [6]) | total locomotor bursts minus vehicle (Dugesia japonica [7]) | resting fraction in blue light (Dugesia japonica [8]) | speed second 30 s blue light (Dugesia japonica [9]) | loss of heat-induced scrunching incidence (Dugesia japonica [10]) | anxiety (Dugesia japonica [11]) | stickiness incidence (Dugesia japonica [12]) | speed in dark (Dugesia japonica [13]) | loss of phototaxis incidence (Dugesia japonica [14]) | C-shape incidence (Dugesia japonica [15]) | corkscrew incidence (Dugesia japonica [16]) | crawl-out incidence (Dugesia japonica [17]) | contracted body shape incidence (Dugesia japonica [18])
1 | O=C(O)/C=C\C(=O)O [maleic acid] (200 µM) | -39.3 | -32.5 | 0 | 0 | 0 | -12.7 | -2 | -5.42 | -23.8 | 33.3 | 23.7 | 12.5 | -20.4 | ≤ 0 | 0 | 0 | 0 | 0
2 | Cc1ncc2n1-c1ccc(Cl)cc1C(c1ccccc1F)=NC2 [midazolam] (17.8 µM) | -19.1 | -3.83 | 33.3 | 0 | 33.3 | 1.03 | 1 | -0.5 | -2.19 | ≤ 0 | -7.26 | ≤ 0 | -14.7 | ≤ 0 | 0 | 0 | 0 | 0
3 | CCCCNc1c(C(=O)OCC)c(C)nc2c1cnn2CC [tracazolate hydrochloride] (31.6 µM) | -31.1 | -90.9 | 12.5 | 0 | 83.3 | 39.1 | 55.8 | 51 | -87.7 | 41.7 | -51.8 | ≤ 0 | -78.9 | 33.3 | 79.2 | 8.33 | 0 | 4.17
4 | O=C(CCCN1CCC(O)(c2ccc(Br)cc2)CC1)c1ccc(F)cc1 [bromperidol] (100 µM) | -48 | -53.3 | 42.9 | 0 | 57.1 | 43.4 | 17 | 40.4 | -63.4 | 28.6 | 21.1 | ≤ 0 | -39.1 | ≤ 0 | 4.76 | 23.8 | 25 | 4.76
5 | CN[C@H]1CC[C@@H](c2ccc(Cl)c(Cl)c2)c2ccccc21 [sertraline hydrochloride] (3.16 µM) | -5.25 | -25.9 | 4.55 | 0 | 4.55 | 1.05 | 8 | 4.62 | -31.9 | ≤ 0 | 15.3 | 4.55 | -20.1 | 18.2 | 0 | 0 | 8.33 | 0
6 | CNCCC(Oc1ccc(C(F)(F)F)cc1)c1ccccc1 (stereo not drawn) [fluoxetine hydrochloride] (3.16 µM) | -9.15 | -11.9 | 0 | 0 | 0 | -6.73 | -7.5 | -1.89 | -5.1 | 16.7 | 8.3 | ≤ 0 | -5.68 | ≤ 0 | 0 | 0 | 0 | 0
7 | CC(NC(C)(C)C)C(=O)c1cccc(Cl)c1 (stereo not drawn) [bupropion] (100 µM) | -32.4 | 9.9 | 0 | 0 | 0 | 25.7 | -1 | -3.29 | 20.6 | 12.5 | 3.91 | 13 | -35.4 | 4.17 | 0 | 0 | 0 | 0
8 | Cc1cc2c(s1)Nc1ccccc1N=C2N1CCN(C)CC1 [olanzapine] (10 µM) | -28.1 | -85.6 | 58.3 | 0 | 58.3 | 72.3 | 20 | 63.5 | -80.9 | 58.3 | -12.4 | ≤ 0 | -68 | 4.17 | 4.17 |  | 0 | 0
9 | O=C(CCCN1CC=C(n2c(=O)[nH]c3ccccc32)CC1)c1ccc(F)cc1 [droperidol] (31.6 µM) | -34 | -94.6 | 25 | 0 | 95.8 | 86.7 | 12.2 | 85.4 | -94.3 | 75 | -26.3 | 12.5 | -81.9 | 58.3 | 29.2 | 4.17 | 0 | 70.8
10 | CN(C)CCCN1c2ccccc2CCc2ccccc21 [imipramine] (1 µM) | -4.45 | -21.6 | 0 | 0 | 4.17 | 6.78 | 3 | 0.17 | -18.2 | ≤ 0 | -4.11 | ≤ 0 | -23.4 | ≤ 0 | 0 | 0 | 0 | 0
11 | CN(C)CCCC1(c2ccc(F)cc2)OCc2cc(C#N)ccc21 (stereo not drawn) [citalopram hydrobromide] (100 µM) | -22.5 | -6.21 | 8.33 | 0 | 8.33 | 1.35 | 1.5 | 0 | -0.52 | 25 | 15.3 | 8.33 | -4.27 | ≤ 0 | 0 | 0 | 0 | 0
12 | O=C(CCCN1CCC(O)(c2ccc(Cl)cc2)CC1)c1ccc(F)cc1 [haloperidol] (10 µM) | -26.4 | -57.5 | 10 | 0 | 20 | 15.2 | 11.5 | 8.2 | -53.4 | 25 | -0.48 | ≤ 0 | -47.5 | 20 | 0 | 10 | 16.7 | 5
13 | CN1CCN(CCCN2c3ccccc3Sc3ccc(Cl)cc32)CC1 [prochloroperazine] (100 µM) | -41.6 | -91.1 | 0 | 0 | 70 | 77 | 0.25 | 82.2 | -92.9 | 75 | -100 | ≤ 0 | -72.3 | 76.5 | 35 | 5 | 29.2 | 75
14 | O=C(CCCN1CC=C(n2c(=O)[nH]c3ccccc32)CC1)c1ccc(F)cc1 [droperidol] (100 µM) | -26.6 | -94.2 | 0 | 0 | 100 | 74.8 | 30 | 93.1 | -96.2 | 73.9 | -37 | 13 | -79.8 | 60.9 | 4.35 | 0 | 4.17 | 100
15 | Cc1cc2c(s1)Nc1ccccc1N=C2N1CCN(C)CC1 [olanzapine] (31.6 µM) | -52.3 | -93.9 | 62.5 | 0 | 75 | 78.3 | 6 | 77.7 | -89.9 | 75 | 24.7 | 16.7 | -71.9 | 17.4 | 4.17 | 16.7 | 4.17 | 
